Measurements taken from patent US20050276834A1, “Mole bait and systems and methods for making and using an improved mole bait” (priority 2004, published 2005).

Test system: moles
Experiment: Mole bait article fed to moles, killing of moles
Assay type: in vivo
Settings: bromethalin absorbed from a single mole bait article; oral consumption by mole
Method: In developing the mole bait article containing gelatin, sorbitol and glycerin according to the above-outlined exemplary embodiment, the applicants screened a large number of elastomers and plasticizers. This screening included determining an appropriate ratio of components by stretching the resultant mole bait article, where the length of the mole bait article was measured before, during and after stretching. This screening also included stretching the mole bait article until the mole bait article broke, thus allowing the tensile strength of the mole bait article to be determined. This screening included providing the mole bait article having the identified formula to moles and observing whether the moles would consume the resultant mole bait article. Finally, this screening included determining whether the mole bait article, when digested by the moles, is sufficiently digestible that a single mole bait article releases an effective amount of the active ingredient into the moles' systems.
In contrast, in various exemplary embodiments of the mole bait article according to this invention, the mole bait article is sufficiently digestible that a single mole bait article according to this invention, upon being consumed and digested, is able to release an effective dose of the active ingredient to the mole. […]

CN(c1c(Br)cc(Br)cc1Br)c1c([N+](=O)[O-])cc([N+](=O)[O-])cc1C(F)(F)F [Bromethalin]
dose received from a single mole bait article during its time in the mole's digestive system: lethal dose from a single one of the mole bait articles
